Some test systems named below: MCF7 breast; UO-31 renal; T-47D breast; SF-539 CNS; SK-MEL-2 melanoma; A549 NSCLC; M14 melanoma; K-562 leukemia; CAKI-1 renal; EKVX NSCLC.
Holding throughout (assay): NCI tumour cell line growth inhibition, 48 h

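Values below derive from 48-hour exposures of cells grown in 96-well plates, with endpoints linearly interpolated between the two concentrations bracketing the appropriate inhibition level. Here, GI50 denotes the concentration required for 50% inhibition of growth. TGI marks complete inhibition of growth.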

For the compound `COc1ccc(C/C(C)=C(/c2ccc(OCCN3CCCCC3)cc2)c2ccc(OC(=O)NCc3ccccc3)cc2)cc1`, the GI50 is 56.8 nM with MCF7 breast; 340 nM in the assay with UO-31 renal; 303 nM with T-47D breast; 401 nM with SF-539 CNS; 460 nM with SK-MEL-2 melanoma; 413 nM with A549 NSCLC. Also, the GI50 in the assay on M14 melanoma was 344 nM; in the assay with K-562 leukemia, 301 nM; in the assay with CAKI-1 renal it was 405 nM; with EKVX NSCLC, 370 nM. The TGI in the assay on MCF7 breast is 512 nM; in the assay on UO-31 renal, 669 nM; with T-47D breast it was 746 nM; in the assay on SF-539 CNS it was 766 nM; in the assay with SK-MEL-2 melanoma, 879 nM; with A549 NSCLC, 821 nM. Further, the TGI in the assay with M14 melanoma worked out at 731 nM; with K-562 leukemia, 1230 nM; in the assay on CAKI-1 renal, 769 nM; in the assay on EKVX NSCLC, 773 nM.

In the case of `C/C(=N/NC(=S)N1CCCCC1)c1ccccc1O`, the TGI in the assay on MCF7 breast was > 31600 nM; in the assay with UO-31 renal, > 31600 nM; with T-47D breast, > 31600 nM; in the assay with SF-539 CNS, > 100000 nM; with SK-MEL-2 melanoma it was > 31600 nM; in the assay on A549 NSCLC, > 31600 nM. Further, the TGI with M14 melanoma, with K-562 leukemia, with CAKI-1 renal and in the assay on EKVX NSCLC was > 31600 nM each time.

As for `C#CC#CC#CC#CC#CC#CC#CC#CCC1OCC(COC(=O)O[C@@H](C(=O)O[C@H]2C[C@@]3(O)[C@@H](OC(=O)c4ccccc4)[C@@H]4[C@]5(OC(C)=O)CO[C@@H]5C[C@H](O)[C@@]4(C)C(=O)[C@H](OC(C)=O)C(=C2C)C3(C)C)[C@@H](NC(=O)c2ccccc2)c2ccccc2)O1` (some centres undefined), the GI50 with MCF7 breast is 46.1 nM; in the assay with UO-31 renal it was > 33300 nM; in the assay on T-47D breast, 205 nM; in the assay on SF-539 CNS, 156 nM; in the assay on SK-MEL-2 melanoma it was 603 nM; in the assay on A549 NSCLC, 175 nM. For the same compound, the GI50 is 160 nM with M14 melanoma, 121 nM in the assay with K-562 leukemia, 446 nM in the assay on CAKI-1 renal and > 26300 nM in the assay on EKVX NSCLC. Moreover, the TGI was > 33300 nM with MCF7 breast; > 33300 nM with UO-31 renal; > 33300 nM with T-47D breast; 1970 nM with SF-539 CNS; > 33300 nM in the assay on SK-MEL-2 melanoma; > 33300 nM in the assay with A549 NSCLC. The TGI in the assay with K-562 leukemia, in the assay on CAKI-1 renal and in the assay on EKVX NSCLC was > 33300 nM each time.

As to `O=C1Nc2ccc(Br)cc2C1=Nc1cccnc1`, the TGI in the assay on MCF7 breast was 59300 nM; with UO-31 renal, 29700 nM; in the assay on T-47D breast it was 52700 nM; in the assay on SF-539 CNS it was 30000 nM; with SK-MEL-2 melanoma it was 57200 nM; with A549 NSCLC, > 100000 nM. Besides, the TGI is 31500 nM in the assay on M14 melanoma, 52700 nM with K-562 leukemia, > 100000 nM in the assay on CAKI-1 renal and 65100 nM with EKVX NSCLC.

In the case of `O=c1cnn(C2OC(CO)C(O)C2O)c(=S)[nH]1` (centres undefined), the TGI in the assay on MCF7 breast, in the assay on UO-31 renal, in the assay on T-47D breast, with SF-539 CNS, in the assay with SK-MEL-2 melanoma and with A549 NSCLC was > 100000 nM throughout. Also, the TGI with M14 melanoma was > 100000 nM; with K-562 leukemia it was > 44600 nM; in the assay on CAKI-1 renal it was > 100000 nM; in the assay on EKVX NSCLC, > 100000 nM.

The values above are taken from PubChem BioAssay (NCI).
